Assay results reported in article PMC9019904, “AD Informer Set: Chemical tools to facilitate Alzheimer's disease drug discovery” (Alzheimer's & Dementia : Translational Research & Clinical …, 2022).

Assays:
cellular system = conditions: published cellular activity at 10 μM; cited from earlier work
[1] = test system: HMC3 (human microglia) cell line; assay: pHrodo-myelin phagocytosis/cell viability high content imaging assay: phagocytosis signal; format: cell-based; conditions: HMC3 cells, 10 μM
Summary of the method: (§1)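 Phagocytosis and cell viability were measured together by high content imaging about 22 hours after pHrodo-myelin addition. Three measurements were extracted from the images. Intensity increase and decrease were taken as early and later apoptosis, respectively.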

[2] = test system: BV2 (mouse microglia) cell line; assay: pHrodo-myelin phagocytosis/cell viability high content imaging assay: viability (cell count, nuclear area, nuclear intensity); conditions: BV2 cells, 10 μM, cell count <70% control
Summary of the method: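 Immortalized microglia are treated with compound (10 μM, single concentration) for 48 h, the final 20 h alongside pHrodo-myelin. Data are the mean of duplicates, reported as % of untreated control.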

[3] = test system: BV2 (mouse microglia) cell line; assay: pHrodo-myelin phagocytosis/cell viability high content imaging assay: phagocytosis signal; format: cell-based; conditions: BV2 cells, 10 μM
Summary of the method: as §1

SMILES	Reported as cell active (<10 μM) (cellular system)	Inhibition of human microglial phagocytosis at 10 μM (<70% control) [1]	Mouse microglial cytotoxicity at 10 μM (<70% control) [2]	Stimulation of mouse microglial phagocytosis at 10 μM (>150% control) [3]
Cc1cc2c(cc1-c1cc(/C=C\C(=O)O)ccc1O)C(C)(C)CCC2(C)C [CD3254]	Y (Published data supports that the compound is active in a cellular system when dosed at 10 μM (Y/N))	–	–	–
Cl.N=C(CCl)NCCC[C@H](NC(=O)c1ccccc1)C(N)=O [Cl-amidine]	Y (Published data supports that the compound is active in a cellular system when dosed at 10 μM (Y/N))	Y (The compound was found to inhibit phagocytosis (response threshold: <70% control) when human immortalized microglial cells were dosed at 10 μM (Y: yes))	–	–
CC(C)(C(=O)O)c1ccc(C(O)CCCN2CCC(C(O)(c3ccccc3)c3ccccc3)CC2)cc1 (centres unmarked) [Fexofenadine]	Y (Published data supports that the compound is active in a cellular system when dosed at 10 μM (Y/N))	–	–	–
Cc1cc2c(cc1C(=O)c1ccc(C(=O)O)cc1)C(C)(C)CCC2(C)C [LG-100064]	Y (Published data supports that the compound is active in a cellular system when dosed at 10 μM (Y/N))	–	–	–
CCCCCCCCCCCCCCCCOCC(COCC(F)(F)F)OP(=O)([O-])OC.[Li+] (centres unmarked) [MJ-33 (lithium salt)]	Y (Published data supports that the compound is active in a cellular system when dosed at 10 μM (Y/N))	Y (The compound was found to inhibit phagocytosis (response threshold: <70% control) when human immortalized microglial cells were dosed at 10 μM (Y: yes))	–	–
C=CC[N+]1([C@H]2C[C@H]3[C@@H]4CC[C@H]5C[C@H](O)[C@@H](N6CCOCC6)C[C@]5(C)[C@H]4CC[C@]3(C)[C@H]2OC(C)=O)CCCC1 [Rocuronium Bromide]	Y (Published data supports that the compound is active in a cellular system when dosed at 10 μM (Y/N))	Y (The compound was found to inhibit phagocytosis (response threshold: <70% control) when human immortalized microglial cells were dosed at 10 μM (Y: yes))	–	–
CC(=O)O[C@@H]1[C@@H](OC(C)=O)[C@@H](O)[C@H](Oc2c(-c3ccc(O)cc3)oc3cc(O)cc(O)c3c2=O)O[C@H]1C [SL0101]	Y (Published data supports that the compound is active in a cellular system when dosed at 10 μM (Y/N))	Y (The compound was found to inhibit phagocytosis (response threshold: <70% control) when human immortalized microglial cells were dosed at 10 μM (Y: yes))	–	–
CCCCCOc1cc2c(cc1-c1cc(/C=C/C(=O)O)ccc1O)C(C)(C)CCC2(C)C [UVI 3003]	Y (Published data supports that the compound is active in a cellular system when dosed at 10 μM (Y/N))	–	–	–
CNC(=O)c1cccc(-c2ccc3c(N4CCOC[C@@H]4C)nc(N4CCOC[C@@H]4C)nc3n2)c1 [Vistusertib]	Y (Published data supports that the compound is active in a cellular system when dosed at 10 μM (Y/N))	–	Y (The compound was found to be cytotoxic (cell count threshold: <70% control) when murine immortalized microglial cells were dosed at 10 μM (Y: yes))	Y (The compound was found to stimulate phagocytosis (response threshold: >150% control) when murine immortalized microglial cells were dosed at 10 μM (Y: yes))
O=S(=O)(NC1CCNCC1)c1cc(S(=O)(=O)c2ccccc2)ccc1C(F)(F)F [WAY-316606]	Y (Published data supports that the compound is active in a cellular system when dosed at 10 μM (Y/N))	–	–	Y (The compound was found to stimulate phagocytosis (response threshold: >150% control) when murine immortalized microglial cells were dosed at 10 μM (Y: yes))
